Holding throughout (format): in vivo
Data set [1] relates to Zea mays (ZEAMX). Briefly: Post-emergence test, Zea mays (ZEAMX). As to conditions: 250 g/ha, sprayed after 8 days cultivation, evaluated after 13 days, glasshouse, crop. Set-up: key: 5: 81-100%; 4: 61-80%; 3: 41-60%; 21-40%; 1-20%; 0: no activity; -: not tested. On the procedure:
(§1) Seeds of a variety of test species are sown in standard soil in pots (Setaria faberi (SETFA), Echinochloa crus-galli (ECHCG), Amaranthus palmeri (AMAPA), Zea mays (ZEAMX), Amaranthus retoflexus (AMARE),). After 8 days cultivation under controlled conditions in a glasshouse (at 24° C./16° C., day/night; 14 hours light; 65% humidity), the plants are sprayed with an aqueous spray solution derived from the formulation of the technical active ingredient in acetone/water (50:50) solution containing 0.5% Tween 20 (polyoxyethelyene sorbitan monolaurate, CAS RN 9005-64-5). Compounds are applied at 250 g/ha unless otherwise stated. The test plants are then grown in a glasshouse under controlled conditions in a glasshouse (at 24° C./16° C., day/night; 14 hours light; 65% humidity) and watered twice daily. After 13 days the test is evaluated for the percentage damage caused to the plant. The biological activities are shown in the following table on a five-point scale (5=81-100%; 4=61-80%; 3=41-60%; 2=21-40%; 1=1-20%; 0=no activity; -=not tested).

Data set [2] concerns Amaranthus palmeri (AMAPA). The data set can be described thus: Post-emergence herbicidal test, Amaranthus palmeri (AMAPA). As to conditions: 250 g/ha, sprayed after 8 days cultivation, evaluated after 13 days, glasshouse. On the procedure: as §1
Data set [3] deals with Amaranthus retoflexus (AMARE). Briefly: Pre-emergence herbicidal test, Amaranthus retoflexus (AMARE). As to conditions: 250 g/ha, evaluated after 13 days, glasshouse.
In data set [4] the test system is Echinochloa crus-galli (ECHCG). Briefly: Post-emergence herbicidal test, Echinochloa crus-galli (ECHCG). Particulars: 250 g/ha, sprayed after 8 days cultivation, evaluated after 13 days, glasshouse. As to the method: as §1
Data set [5] relates to Amaranthus retoflexus (AMARE). Briefly: Post-emergence herbicidal test, Amaranthus retoflexus (AMARE). Particulars: 250 g/ha, sprayed after 8 days cultivation, evaluated after 13 days, glasshouse. As to the method:
as §1

Data set [6] has as its system Setaria faberi (SETFA). Briefly: Post-emergence herbicidal test, Setaria faberi (SETFA). Particulars: 250 g/ha, sprayed after 8 days cultivation, evaluated after 13 days, glasshouse. As to the method: as §1
The subject of data set [7] is Echinochloa crus-galli (ECHCG). The data set can be described thus: Pre-emergence herbicidal test, Echinochloa crus-galli (ECHCG). Particulars: 250 g/ha, evaluated after 13 days, glasshouse.
Data set [8] concerns Amaranthus palmeri (AMAPA). The data set can be described thus: Pre-emergence herbicidal test, Amaranthus palmeri (AMAPA). Particulars: 250 g/ha, evaluated after 13 days, glasshouse.
The test system of data set [9] is Setaria faberi (SETFA). Briefly: Pre-emergence herbicidal test, Setaria faberi (SETFA). Particulars: 250 g/ha, evaluated after 13 days, glasshouse.
The subject of data set [10] is Zea mays (ZEAMX). Briefly: Pre-emergence test, Zea mays (ZEAMX). As to conditions: 250 g/ha, evaluated after 13 days, glasshouse, crop.

As for `CCn1c(Cl)cc(=O)c(C(=O)O)c1-c1ccc(Cl)c(Cl)c1` [Compound 2, 6-chloro-2-(3,4-dichlorophenyl)-1-ethyl-4-oxo-pyridine-3-carboxylic acid], the “percentage damage caused to the plant, ZEAMX” value in [1] is 0; in [10], 1 (1-20%). In addition, the “percentage damage caused to the plant, AMAPA” value in [2] is 1 (1-20%); in data set [8], 2 (21-40%). In addition, the entries for the “percentage damage caused to the plant, AMARE” value in [3] and in data set [5] were 3 (41-60%) and 1 (1-20%), respectively. Further, the “percentage damage caused to the plant, ECHCG” value in data set [4] and in [7] was 3 (41-60%) in each case. The “percentage damage caused to the plant, SETFA” value in data set [6] was 4 (61-80%); in data set [9], 5 (81-100%).

Values taken from patent US20260293895A1, “HERBICIDAL DERIVATIVES” (SYNGENTA CROP PROTECTION AG, priority 2023, published 2026).
